Patent publication US20200045969A1, “Fungicidal Composition and Fungicide for Controlling Asparagus Stem Blight” (Institute of Plant Protection, Jiangxi Academy of …, priority 2018, published 2020)

Test system: Phomopsis asparagi (Sacc.)
Assay: laboratory toxicity, mycelium growth rate method
Format: cell-based
Settings: for ATI (actually-determined toxicity index): (EC50 of standard agent/EC50 of agent to be tested)×100, difenoconazole = 100; for EC50: Phomopsis asparagi, pathogenic fungi of asparagus stem blight collected from the field
Description: According to Sun Yunpei method, the synergistic effect of the mixed drug was evaluated based on a cotoxicity coefficient (CTC). […] The subjects to be tested were pathogenic fungi of asparagus stem blight collected from the field. The determination method was conducted with reference to the mycelium growth rate method in “Technical regulation on agricultural construction project acceptance NY/T 1156.6-2006 of the People's Republic of China”.

Structure (SMILES)	ATI (actually-determined toxicity index)	EC50
N=C(N)c1ccc(OCCCOc2ccc(C(=N)N)cc2)cc1 [propamidine]	166.04	0.053 µg/mL
CC1COC(Cn2cncn2)(c2ccc(Oc3ccc(Cl)cc3)cc2Cl)O1 (stereo not shown) [difenoconazole]	100.00	0.088 µg/mL
